Biological target: T1, hACE2 (Homo sapiens, UniProt Q9BYF1)
Test: ACE2 binding assay (ACE2 Inhibitor Screening Assay Kit)
Set-up: purchased BPS Bioscience
Settings: not given

T1 sequence (Q9BYF1 18-805): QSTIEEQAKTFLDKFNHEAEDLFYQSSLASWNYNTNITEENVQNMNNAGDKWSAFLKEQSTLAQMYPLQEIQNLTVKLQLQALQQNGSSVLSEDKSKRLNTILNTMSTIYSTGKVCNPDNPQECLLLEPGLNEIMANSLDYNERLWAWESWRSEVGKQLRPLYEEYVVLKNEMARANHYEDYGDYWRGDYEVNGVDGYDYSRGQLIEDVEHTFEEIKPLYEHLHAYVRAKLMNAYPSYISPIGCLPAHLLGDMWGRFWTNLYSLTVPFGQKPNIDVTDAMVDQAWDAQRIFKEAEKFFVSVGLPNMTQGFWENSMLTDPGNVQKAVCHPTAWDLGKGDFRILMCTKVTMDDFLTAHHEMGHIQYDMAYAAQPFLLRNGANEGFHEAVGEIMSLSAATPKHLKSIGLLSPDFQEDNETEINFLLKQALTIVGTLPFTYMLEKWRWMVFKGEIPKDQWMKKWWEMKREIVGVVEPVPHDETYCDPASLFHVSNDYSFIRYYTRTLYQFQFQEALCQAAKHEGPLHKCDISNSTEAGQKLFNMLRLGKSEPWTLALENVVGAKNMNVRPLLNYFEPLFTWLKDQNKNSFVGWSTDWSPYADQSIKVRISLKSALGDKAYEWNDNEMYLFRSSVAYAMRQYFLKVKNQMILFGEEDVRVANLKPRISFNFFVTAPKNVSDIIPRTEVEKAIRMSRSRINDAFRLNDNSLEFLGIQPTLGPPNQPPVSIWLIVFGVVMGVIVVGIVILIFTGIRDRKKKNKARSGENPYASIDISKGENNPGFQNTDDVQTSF

Molecule	concentration at which binding efficacy to ACE2 was shown [µg/mL]
COc1cc(/C=C/C(=O)CC(=O)/C=C/c2ccc(O)c(OC)c2)ccc1O [Curcumin]	10 to 25

Biological target: RBD of SARS-CoV-2 spike protein (Severe acute respiratory syndrome coronavirus 2, UniProt P0DTC2)
Test: not given
Settings: literature computational study; cited from earlier work

Molecule	binding energy ΔG to RBD / viral spike protein [kcal/mol]
COc1cc(/C=C/C(=O)CC(=O)/C=C/c2ccc(O)c(OC)c2)ccc1O [Curcumin]	-10.5
catechin [cathechin]	-7.9

Biological target: RBD of SARS-CoV-2 spike protein binding to hACE2 receptor (Severe acute respiratory syndrome coronavirus 2, UniProt P0DTC2)
Test: not given
Settings: not given

Molecule	Binding with RBD (% of control ± SD)	enhancement of blocking the RBD binding by Formula 1 when micronutrient tested individually
O=C1O[C@H]2[C@@H]3OC(=O)c4cc(O)c(O)c(O)c4-c4c(O)c(O)c5oc(=O)c6c(c(O)c(O)c7oc(=O)c4c5c76)-c4c(cc(O)c(O)c4O)C(=O)OC[C@H]3OC(O)[C@@H]2OC(=O)c2cc(O)c(O)c(O)c2-c2c1cc(O)c(O)c2O (mixture of isomers) [Punicalagin]	32.3 ± 5.9 % of control	
O=C(OC1Cc2c(O)cc(O)cc2OC1c1cc(O)c(O)c(O)c1)c1cc(O)c(O)c(O)c1 (single isomer, unassigned; (+)) [(+)-epigallocatechin gallate]	87.5 ± 6.8 % of control	
Oc1cc(O)c2c(c1)O[C@H](c1cc(O)c(O)c(O)c1)[C@@H](O)C2 [(+)-gallocatechin]	69.5 ± 2.8 % of control	
O=C(O[C@@H]1Cc2c(O)cc(O)cc2O[C@H]1c1ccc(O)c(O)c1)c1cc(O)c(O)c(O)c1 [(−)-catechin gallate]	37.4 ± 4.7 % of control	
Oc1cc(O)c2c(c1)O[C@@H](c1cc(O)c(O)c(O)c1)[C@H](O)C2 [(−)-gallocatechin]	73.5 ± 6.7 % of control	
C=C1CC[C@@H]2[C@](C)(CO)[C@H](O)CC[C@@]2(C)[C@@H]1C/C=C1/C(=O)OC[C@H]1O [Andrographolide]	22.1 ± 2.5 % of control	
O=c1cc(-c2ccc(O)cc2)oc2cc(O)cc(O)c12 [Apigenin]	17.1 ± 4.1 % of control	
O=c1cc(-c2ccccc2)oc2cc(O)c(O)c(O)c12 [Baicalein]	22.5 ± 5.1 % of control	
O=C(O)[C@H]1O[C@@H](Oc2cc3oc(-c4ccccc4)cc(=O)c3c(O)c2O)[C@H](O)[C@@H](O)[C@@H]1O [Baicalin]	10.3 ± 2.9 % of control	only minimal enhancement
COc1ccc2cc3[n+](cc2c1OC)CCc1cc2c(cc1-3)OCO2 [Berberine]	17.3 ± 2.7 % of control	
C=C(C)[C@@H]1CCC(C)=C[C@H]1c1c(O)cc(CCCCC)cc1O [Cannabidiol, reference compound]	1.4 ± 0.3 % of control	
CC(C)c1cc2c(c(O)c1O)[C@@]1(C(=O)O)CCCC(C)(C)[C@@H]1CC2 [Carnosic acid]	27.1 ± 5.1 % of control	
O[C@H]1[C@H](O)[C@@H](O)CN2CC[C@H](O)[C@H]12 [Castanospermine]	8.2 ± 2.3 % of control	
O=C(/C=C/c1ccc(O)c(O)c1)O[C@@H]1C[C@](O)(C(=O)O)C[C@@H](O)[C@H]1O [Chlorogenic acid]	25.5 ± 2.5 % of control	
COc1cc(/C=C/C(=O)CC(=O)/C=C/c2ccc(O)c(OC)c2)ccc1O [Curcumin]	100 ± 0.2 % of control	
C=C(C)[C@H]1CC=C(C)CC1 [D-limonene]	27.2 ± 6.4 % of control	
O=c1c(O)c(-c2ccc(O)c(O)c2)oc2cc(O)ccc12 [Fisetin]	22.4 ± 1.9 % of control	
O=C(O)c1cc(O)c(O)c(O)c1 [Gallic acid]	18.3 ± 4.5 % of control	
O=c1c(-c2ccc(O)cc2)coc2cc(O)cc(O)c12 [Genistein]	22.1 ± 2.8 % of control	
COc1ccc([C@@H]2CC(=O)c3c(O)cc(O)cc3O2)cc1O [Hesperetin]	42.5 ± 4.6 % of control	
COc1ccc([C@@H]2CC(=O)c3c(O)cc(O[C@@H]4O[C@H](CO[C@@H]5O[C@@H](C)[C@H](O)[C@@H](O)[C@H]5O)[C@@H](O)[C@H](O)[C@H]4O)cc3O2)cc1O [Hesperidin]	90.3 ± 3.8 % of control	only minimal enhancement
COc1c(O)cc2oc(-c3ccc(O)cc3)cc(=O)c2c1O [Hispidulin]	20.1 ± 6.0 % of control	
O=c1c(O)c(-c2ccc(O)cc2)oc2cc(O)cc(O)c12 [Kaemferol]	15.6 ± 2.9 % of control	

Molecule	Binding with RBD (% of control ± SD)	enhancement of blocking the RBD binding by Formula 1 when micronutrient tested individually
C[S+]([O-])CCCCN=C=S [L-sulforaphane]	30.2 ± 3.6 % of control	
O=c1cc(-c2ccc(O)c(O)c2)oc2cc(O)cc(O)c12 [Luteolin]	10.4 ± 4.7 % of control	only minimal enhancement
O=C(O)CC(O)C(=O)O (stereo not shown) [Malic acid]	1.2 ± 3.7 % of control	
O=c1c(O)c(-c2ccc(O)cc2O)oc2cc(O)cc(O)c12 [Morin]	30.5 ± 5.8 % of control	
O=c1c(O)c(-c2cc(O)c(O)c(O)c2)oc2cc(O)cc(O)c12 [Myricetin]	45.5 ± 5.4 % of control	
O=C1C[C@@H](c2ccc(O)cc2)Oc2cc(O)cc(O)c21 [Naringenin]	20 ± 5.1 % of control	
C[C@@H]1O[C@@H](O[C@H]2[C@H](Oc3cc(O)c4c(c3)O[C@H](c3ccc(O)cc3)CC4=O)O[C@H](CO)[C@@H](O)[C@@H]2O)[C@H](O)[C@H](O)[C@H]1O [Naringin]	23.6 ± 6.4 % of control	
COc1cc2c(cc1OC)-c1cc3ccc(OC)c(OC)c3c[n+]1CC2 [Palmatine]	40.4 ± 6.1 % of control	
COc1ccc(Cc2nccc3cc(OC)c(OC)cc23)cc1OC [Papaverine, reference compound]	1.6 ± 0.2 % of control	
Oc1cc(O)cc(O)c1 [Phloroglucinol]	69.5 ± 3.6 % of control	
Oc1cc(O)c2c(c1)O[C@H](c1ccc(O)c(O)c1)[C@H](O)[C@H]2c1c(O)cc(O)c2c1O[C@H](c1ccc(O)c(O)c1)[C@H](O)C2 [Procyanidin B2]	31.1 ± 3.6 % of control	
Oc1cc(O)c2c(c1)O[C@H](c1ccc(O)c(O)c1)[C@@H](O)[C@@H]2c1c(O)cc(O)c2c1O[C@H](c1ccc(O)c(O)c1)[C@@H](O)C2 [Procyanidin B3]	32.3 ± 3.7 % of control	
COc1cc(/C=C/c2ccc(O)cc2)cc(OC)c1 [Pterostillbene]	23.1 ± 2.8 % of control	
O=c1c(O)c(-c2ccc(O)c(O)c2)oc2cc(O)cc(O)c12 [Quercetin]	22.4 ± 6.5 % of control	
O=C(/C=C/c1ccc(O)c(O)c1)O[C@H](Cc1ccc(O)c(O)c1)C(=O)O [Rosmarinic acid]	22.5 ± 3.8 % of control	
C[C@@H]1O[C@@H](OC[C@H]2O[C@@H](Oc3c(-c4ccc(O)c(O)c4)oc4cc(O)cc(O)c4c3=O)[C@H](O)[C@@H](O)[C@@H]2O)[C@H](O)[C@H](O)[C@H]1O [Rutin]	20.6 ± 6.3 % of control	
O=C(O)[C@H]1O[C@@H](Oc2cc3oc(-c4ccc(O)cc4)cc(=O)c3c(O)c2O)[C@H](O)[C@@H](O)[C@@H]1O [Scutellarin]	8.1 ± 3.7 % of control	
O=C(OC[C@H]1O[C@@H](OC(=O)c2cc(O)c(O)c(OC(=O)c3cc(O)c(O)c(O)c3)c2)[C@H](OC(=O)c2cc(O)c(O)c(OC(=O)c3cc(O)c(O)c(O)c3)c2)[C@@H](OC(=O)c2cc(O)c(O)c(OC(=O)c3cc(O)c(O)c(O)c3)c2)[C@@H]1OC(=O)c1cc(O)c(O)c(OC(=O)c2cc(O)c(O)c(O)c2)c1)c1cc(O)c(O)c(OC(=O)c2cc(O)c(O)c(O)c2)c1 [Tannic acid]	79.4 ± 2.3 % of control	
O=c1c(O)cc([C@H]2Oc3cc(O)cc(O)c3C[C@H]2O)cc2c([C@H]3Oc4cc(O)cc(O)c4C[C@H]3O)cc(O)c(O)c12 [Theaflavin]	27.3 ± 1.4 % of control	
Oc1ccc(/C=C/c2cc(O)cc(O)c2)cc1 [Trans-resveratrol]	22.3 ± 2.9 % of control	
O=c1oc2cc(O)ccc2c2ccc(O)cc12 [Urolithin A]	31.1 ± 4.6 % of control	
CC(=O)c1c(O)c(C)c(O)c2c1OC1=CC(=O)C(C(C)=O)C(=O)C12C (stereo not shown) [Usnic acid]	22.0 ± 3.4 % of control	
(−)-gallocatechin gallate	75.4 ± 5.6 % of control	

System: cathepsin L expression in A549 cells
Test: Cathepsin L expression in A549 cells (Western blot)
Assay type: cell-based, human
Settings: A549 cells
Experimental: Proteins (50 μg/well) were separated on 8-16% gradient SDS-PAGE gels and transferred to a PVDF membrane. […] Images were captured with Azure™ cSeries digital imaging system (Azure Biosystems, Dublin, Calif.) with auto-exposure settings. Densitometry was performed with NIH ImageJ software.
Cathepsin L expression: Expression of cathepsin L in cells was performed using Western blot. Briefly, 48 hours prior to the analysis, A549 cells were treated with PB at 5.0, and 10 μg/ml concentrations. Next, cells were washed with 1×PBS, lysed, and processed according to procedure described below.
Western blot: […] cells were lysed with lysis buffer [RIPA buffer plus 1× Protease Inhibitor (ThermoFisher Scientific, Waltham, Mass.)]. The protein estimation was performed with Dc Protein Assay (Bio-Rad, Hercules, Calif.). A 45 μg/well of protein was separated on 8-16% gradient SDS-PAGE gels and transferred to a PVDF membrane. Detection was performed with antibodies against cathepsin L at 1:200 dilution (Santa Cruz Biotechnology, Santa Cruz, Calif.) and against β-actin at 1:1000 dilution (Cell Signaling, Danvers, Mass.).

Molecule	cathepsin L expression at protein level
COc1cc(/C=C/C(=O)CC(=O)/C=C/c2ccc(O)c(OC)c2)ccc1O [Curcumin]	neither brazilin nor curcumin down-regulated cathepsin L expression

Biological target: T1, hACE2
Test: not given
Settings: literature computational study (Jena et al.); cited from earlier work

Molecule	binding energy to hACE2 [kcal/mol]
COc1cc(/C=C/C(=O)CC(=O)/C=C/c2ccc(O)c(OC)c2)ccc1O [Curcumin]	-8.9
catechin [cathechin]	-7.8

From patent US20220047545A1 (priority 2020, published 2022)
